These are literature values, as cited in patent publication US8716506B2, “Xylitol esters and ethers applied as alternative emulsifiers, solvents, co-emulsifiers and preservative systems for pharmaceutical and cosmetic products” (priority 2008, dated 2014).

For one data set, the system named is Haemophilus influenzae. Particulars: concentration of 5%.
For a further data set, the system named is S. pneumoniae. Particulars: concentration of 5%.
The subject of a further data set is Streptococcus pneumoniae. The note with it: concentration of 5%.

In the case of `C=O` [formaldehyde, Formaldehyde (methanal)], the “volunteers with contact hypersensitizing” value (clinical tests, even in concentrations of 30 ppm of free formaldehyde) is recorded as 1-9%. As to `OC[C@@H](O)[C@H](O)[C@@H](O)CO` [xylitol], the “adherence levels in epithelial nasopharyngeal cells” value with Haemophilus influenzae and in the data set on S. pneumoniae was “reduced the adherence levels” throughout. For the same compound, the growth inhibition entry in the data set with Streptococcus pneumoniae was “inhibited the growth”. On to `CC1(C)C(=O)N(CO)C(=O)N1CO` [DMDM hydantoin, 1,3-Dimethylo1-5,5-dimethyl hydantoin], for which, for the setting “De Groot and collaborators”, the “volunteers with hypersensitivity in contact test” value is recorded as 57%.
